The values below come from publication PMC7048932, “Examining sterically demanding lysine analogs for histone lysine methyltransferase catalysis” (Scientific Reports, 2020).

The target in this assay is T1, G9a (Homo sapiens, UniProt Q96KQ7).
T1 construct: His6 (N); made in house; host or cells: E. coli BL21 (DE3)pLysS-rosetta
T1 sequence (Q96KQ7 1-1210): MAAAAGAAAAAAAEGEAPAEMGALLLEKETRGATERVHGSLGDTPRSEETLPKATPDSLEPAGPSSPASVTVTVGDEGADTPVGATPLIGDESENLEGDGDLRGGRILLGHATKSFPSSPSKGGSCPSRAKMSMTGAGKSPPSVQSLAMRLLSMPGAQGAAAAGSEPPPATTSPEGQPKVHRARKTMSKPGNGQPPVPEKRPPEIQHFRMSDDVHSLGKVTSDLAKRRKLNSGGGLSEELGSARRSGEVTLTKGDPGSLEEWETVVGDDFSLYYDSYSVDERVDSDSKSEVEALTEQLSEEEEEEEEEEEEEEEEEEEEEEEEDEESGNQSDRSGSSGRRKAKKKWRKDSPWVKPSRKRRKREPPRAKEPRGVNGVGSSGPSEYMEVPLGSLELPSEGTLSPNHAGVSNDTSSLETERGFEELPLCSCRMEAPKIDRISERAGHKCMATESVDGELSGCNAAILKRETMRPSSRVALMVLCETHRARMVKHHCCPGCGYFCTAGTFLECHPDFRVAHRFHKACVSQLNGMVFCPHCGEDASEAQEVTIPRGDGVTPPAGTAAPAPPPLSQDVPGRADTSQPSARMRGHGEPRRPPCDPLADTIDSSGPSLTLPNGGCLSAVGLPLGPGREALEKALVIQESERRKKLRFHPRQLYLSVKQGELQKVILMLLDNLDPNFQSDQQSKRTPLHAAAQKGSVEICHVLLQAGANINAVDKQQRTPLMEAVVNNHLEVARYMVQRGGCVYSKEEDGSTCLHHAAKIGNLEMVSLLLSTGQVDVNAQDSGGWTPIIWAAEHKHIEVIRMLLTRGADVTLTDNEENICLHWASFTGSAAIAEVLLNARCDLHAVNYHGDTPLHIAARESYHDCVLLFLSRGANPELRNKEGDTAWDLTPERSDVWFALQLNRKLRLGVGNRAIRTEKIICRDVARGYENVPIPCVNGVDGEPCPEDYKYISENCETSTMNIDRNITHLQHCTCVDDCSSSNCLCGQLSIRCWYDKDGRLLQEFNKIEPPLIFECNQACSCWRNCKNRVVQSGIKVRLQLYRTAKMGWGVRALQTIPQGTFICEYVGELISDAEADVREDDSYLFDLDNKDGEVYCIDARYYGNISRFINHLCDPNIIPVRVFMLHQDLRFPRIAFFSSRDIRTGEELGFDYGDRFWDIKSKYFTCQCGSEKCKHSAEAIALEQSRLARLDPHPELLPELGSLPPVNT
Put plainly: MALDI-TOF MS methylation assay of H3K9 peptides with G9a. It counts as biochemical. The conditions noted are these: peptide 100 µM, G9a 2 µM, SAM 500 µM, 1 h, 37 °C. The protocol:
MALDI-MS methyltransferases activity experiments were performed using a Bruker instrument in the reflectron positive mode. For regular methyltransferase standard conditions experiment which carried out in 30 µL total volume, the mixture contains peptide (100 µM), SAM (200 µM), SETD8 or SETD7 (2 µM), in assay buffer 50 mM Tris at optimal pH 8.0. In case of G9a and GLP, similar conditions were used, except (500 µM) of SAM was added to the reaction mixture. Samples were incubated in an Eppendorf vial 1.5 mL using thermomixer for 1 h at 37 °C. A 5 µL aliquot of the solution was mixed with 5 µL of MeOH, after which 5 µL of this mixture was mixed with 5 µL of α-cyano-4-hydroxycinamic acid matrix (CHCA, 5 mg/mL in 125:125 µL acetonitrile/water). The spots were placed on a stainless steel MALDI plate (MS 96 target ground steel BC of Bruker, Germany). The mass corresponding to one monomethylation observed as +14 Da, dimethylation observed as +28 Da and trimethylation observed as +42 Da. The enzymatic activity was determined by taking the peak areas of each methylation state, including all isotopes and adducts, and was annotated using FlexAnalysis software (Bruker Daltonics, Germany). […] Methylated peptide substrates were repeated five times and the unmethylated substrates were triplicated. Sequences of the examined peptides are given in (Supplementary Table 1).

Take ARTKQTAR(Kba9)STGGKA [H3Kba9]: the “G9a-catalyzed methylation, result in words” value is on record as “traces detected”. The “G9a-catalyzed methylation, result in words” value (listed as H3K ba9) was “trace of monomethylation”.
